According to BindingDB's records for patent US20250326790 (University of Southampton, 2025):
Where a SMILES comes first, the peptide text is derived from it. [ ]: non-standard residue; d: D form. The star is where a group is joined. Phe(4-I) = N[C@@H](Cc1ccc(I)cc1)C(=O)O; hLeu = CC(C)CC[C@H](N)C(=O)O; Isobutyryl = CC(C)C(=O)*

Molecular target: T1, Hypoxia-inducible factor 1-alpha [228-298] (Homo sapiens, UniProt Q16665)
T1 construct: 228-298
Assay: Assessment of HIF-1α and 2α Binding Activity in In Vitro Assays
Method: MST experiments were performed on a Monolith NT.115 system (Nanotemper Technologies GmbH), in assay buffer containing 50 nM labelled protein, 10% DMSO and 0.05% TWEEN-20. MST measurements were performed using 50% LED and 50% MST power.

T1 sequence (Q16665 whole entry): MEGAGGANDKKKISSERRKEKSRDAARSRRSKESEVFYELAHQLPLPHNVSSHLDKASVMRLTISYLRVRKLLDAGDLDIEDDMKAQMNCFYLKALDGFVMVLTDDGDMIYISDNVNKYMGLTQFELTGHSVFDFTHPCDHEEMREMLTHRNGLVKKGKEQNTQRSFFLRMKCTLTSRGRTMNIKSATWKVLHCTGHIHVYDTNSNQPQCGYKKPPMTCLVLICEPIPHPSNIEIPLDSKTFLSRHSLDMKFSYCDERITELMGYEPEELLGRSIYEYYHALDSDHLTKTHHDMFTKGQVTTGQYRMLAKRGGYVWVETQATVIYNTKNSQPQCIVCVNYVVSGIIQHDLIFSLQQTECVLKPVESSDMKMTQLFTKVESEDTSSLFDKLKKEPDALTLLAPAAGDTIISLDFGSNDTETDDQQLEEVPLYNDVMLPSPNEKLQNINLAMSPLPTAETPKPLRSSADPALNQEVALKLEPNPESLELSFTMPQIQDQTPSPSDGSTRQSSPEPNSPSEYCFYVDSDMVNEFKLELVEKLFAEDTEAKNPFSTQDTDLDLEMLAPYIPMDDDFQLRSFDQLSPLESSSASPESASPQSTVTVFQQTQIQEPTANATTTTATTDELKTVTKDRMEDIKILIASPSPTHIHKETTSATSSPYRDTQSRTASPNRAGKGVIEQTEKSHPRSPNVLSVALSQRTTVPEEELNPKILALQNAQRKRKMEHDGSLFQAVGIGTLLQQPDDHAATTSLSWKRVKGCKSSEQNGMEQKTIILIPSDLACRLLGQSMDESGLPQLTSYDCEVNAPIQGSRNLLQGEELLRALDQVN

CC(C)CC[C@H](NC(=O)C(C)C)C(=O)N[C@@H](Cc1ccc(I)cc1)C(=O)N[C@@H](CS)C(N)=O [US20250326790, Example 1] (Isobutyryl-[hLeu]-[Phe(4-I)]-Cys-NH2)
Kd: > 40 µM

CC(C)CC[C@H](NS(=O)(=O)c1ccc(Cl)s1)C(=O)N[C@@H](Cc1ccc(I)cc1)C(=O)N[C@@H](CS)C(=O)NCCCCCCN [US20250326790, Example 41]
Kd: > 100 µM
